Where a name gives a salt, the structure may show the parent alone.
Key:
[1] = target: T1, Human Axl (Homo sapiens, UniProt P30530); assay: Human AXL kinase assay (33P radiometric / HTRF KinEase); assay type: biochemical; settings: protocols of Examples A-1 and/or A-2
T1 construct: Human AXL (residues 464-885)
T1 sequence (P30530 1-894 Q764R): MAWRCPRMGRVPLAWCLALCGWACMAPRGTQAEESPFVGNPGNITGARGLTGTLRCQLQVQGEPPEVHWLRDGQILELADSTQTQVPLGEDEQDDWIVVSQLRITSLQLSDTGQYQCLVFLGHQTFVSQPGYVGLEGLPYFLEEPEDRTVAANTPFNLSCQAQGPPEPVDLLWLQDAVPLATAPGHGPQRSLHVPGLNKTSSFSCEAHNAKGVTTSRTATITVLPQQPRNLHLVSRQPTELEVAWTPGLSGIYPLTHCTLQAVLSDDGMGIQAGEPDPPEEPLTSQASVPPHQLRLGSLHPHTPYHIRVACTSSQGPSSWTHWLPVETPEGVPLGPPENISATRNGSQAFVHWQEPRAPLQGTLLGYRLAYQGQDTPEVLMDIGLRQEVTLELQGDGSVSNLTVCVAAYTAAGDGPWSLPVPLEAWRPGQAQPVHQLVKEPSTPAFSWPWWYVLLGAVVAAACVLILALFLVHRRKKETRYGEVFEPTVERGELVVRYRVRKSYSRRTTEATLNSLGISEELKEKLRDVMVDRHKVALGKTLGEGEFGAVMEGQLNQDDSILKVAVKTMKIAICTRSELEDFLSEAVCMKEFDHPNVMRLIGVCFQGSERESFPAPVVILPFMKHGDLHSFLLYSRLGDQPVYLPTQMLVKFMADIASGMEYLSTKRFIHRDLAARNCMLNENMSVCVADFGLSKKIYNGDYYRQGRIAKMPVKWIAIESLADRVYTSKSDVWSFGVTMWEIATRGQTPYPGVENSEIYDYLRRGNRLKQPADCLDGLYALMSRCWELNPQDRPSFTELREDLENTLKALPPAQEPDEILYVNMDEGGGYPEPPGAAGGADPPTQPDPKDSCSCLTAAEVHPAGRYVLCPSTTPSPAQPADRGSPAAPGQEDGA
Experimental: (§1) Kinase activity and compound inhibition were investigated using the ^33P-Phosphoryl transfer radiometric kinase assay, performed using the KinaseProfiler™ service of Eurofins Pharma Discovery Services UK Limited. Dose-response experiments were performed using nine compound concentrations in a 96-well microtiter plate. For each assay, all compounds were prepared to a 50× final assay concentration (50 μM) in 100% DMSO, then diluted in a half-log series, with the final top concentration at 1 μM. This working stock of the compound was added to the assay well as the first component in the reaction, followed by the remaining components as detailed in the following assay protocols below. The positive control wells (100% kinase activity) contain all components of the reaction including 2% DMSO (control for solvent effects), except the compound of interest. Blank wells contain all components of the reaction, with the reference inhibitor, staurosporine. This reference compound was used to abolish kinase activity and generated the 0% kinase activity base-line. IC50 values were calculated by nonlinear regression analysis using the sigmoidal dose-response (variable slope) curve fit on XLFit version 5.3 (ID Business Solutions).
(§2) Kinase activity and compound inhibition were also investigated using the HTRF® KinEase assay (Cisbio Cat #62TKOPEB) per manufacturer's instructions. In short, compounds were delivered in 300 nL volumes at 10 different concentrations in DMSO (3% final) to empty 384-well assay plates (Corning cat #3824). A mixture of enzyme, 1 μM biotinylated peptide substrate, and buffer in 10 μL volume was added. The assay was started upon the addition of ATP (at Km). The 10 μL reaction was incubated at room temperature. The reaction was stopped upon the addition of detection buffer containing streptavidin-XL665 (5 μL) and TK antibody-Eu3+(5 μL). After a 60 min incubation at room temperature, the fluorescence at 665 nm and 620 nm was read on an Envision microplate reader (Perkin Elmer).
(§3) Kinase activity normalized to DMSO (100% activity) and reference compound at 1 μM and (0% activity) was calculated using the fluorescence ratio […]. IC50 values were calculated by nonlinear regression analysis using a 4-parameter logistic curve fit in ActivityBase XE (IDBS).
Example A-1: Human Axl (residues H473-A894 with Q764R, 161 nM) was incubated with 8 mM MOPS pH 7.0, 0.2 mM EDTA, 250 μM KKSRGDYMTMQIG (SEQ ID NO:1), 10 mM magnesium acetate and 10 μM [γ-^33P-ATP]. The reaction was initiated by the addition of the Mg/ATP mix. After incubation for 40 minutes at room temperature, the reaction was stopped by the addition of phosphoric acid to a concentration of 0.5%. A reaction aliquot of 10 μL was then spotted onto a P30 filtermat and washed four times for 4 minutes in 0.425% phosphoric acid and once in methanol prior to drying and scintillation counting. Incorporated ^33P was measured using the Wallac Microbeta scintillation counter (Perkin Elmer).
Example A-2: Human AXL (residues 464-885; CarnaBio, 1 ng/well) was also incubated with enzymatic buffer (Cisbio) supplemented with 5 mM MgCl2, 1 mM DTT, and Supplemental Enzymatic Buffer (SEB; Cisbio). The mixture was added to the pre-plated compounds. The reaction was initiated upon addition of ATP at Km (1.0 μM). The reaction was incubated at room temperature for 50 min and stopped upon the addition of SA-XL665 and TK-antibody both diluted in EDTA-containing kinase detection buffer (Cisbio). The kinase activity was calculated as stated above and the IC50 values were reported.

[2] = target: T2, Human Met (Homo sapiens, UniProt P08581); assay: Human Met kinase assay (33P radiometric / HTRF KinEase); assay type: biochemical; settings: protocols of Examples D-1 and/or D-2; read-out: c-Met IC50
T2 construct: Human MET (residues 956-1390)
T2 sequence (P08581 974-1390 limits assumed): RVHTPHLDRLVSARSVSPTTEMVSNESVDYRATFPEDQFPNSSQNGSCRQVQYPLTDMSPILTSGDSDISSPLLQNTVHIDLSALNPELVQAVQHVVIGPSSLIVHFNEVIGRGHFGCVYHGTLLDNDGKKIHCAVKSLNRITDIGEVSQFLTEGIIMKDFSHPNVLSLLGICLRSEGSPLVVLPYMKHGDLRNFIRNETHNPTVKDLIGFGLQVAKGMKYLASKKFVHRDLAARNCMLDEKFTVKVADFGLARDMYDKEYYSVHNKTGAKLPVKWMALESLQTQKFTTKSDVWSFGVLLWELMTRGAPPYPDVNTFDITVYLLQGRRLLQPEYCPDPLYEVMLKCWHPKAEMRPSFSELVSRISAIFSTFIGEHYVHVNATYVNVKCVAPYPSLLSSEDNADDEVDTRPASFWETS
Experimental: as §1, §2, §3
Example D-1: Human Met (residues R974-S1390 with A1209G and V1290L, 3.4 nM) was incubated with 8 mM MOPS pH 7.0, 0.2 mM EDTA, 250 μM KKKGQEEEYVFIE (SEQ ID NO:3), 1 mM sodium orthovanadate, 5 mM […], 10 mM magnesium acetate, and 10 μM [γ-^33P-ATP]. The reaction was initiated by the addition of the Mg/ATP mix. After incubation for 40 minutes at room temperature, the reaction was stopped by the addition of phosphoric acid to a concentration of 0.5%. A reaction aliquot of 10 μL was then spotted onto a P30 filtermat and washed four times for 4 minutes in 0.425% phosphoric acid and once in methanol prior to drying and scintillation counting. Incorporated ^33P was measured using the Wallac Microbeta scintillation counter (Perkin Elmer).
Example D-2: Human MET (residues 956-1390; CarnaBio, 0.1 ng/well) was also incubated with enzymatic buffer (Cisbio) supplemented with 5 mM MgCl2, 1 mM DTT and 1 mM MnCl2. The mixture was added to the pre-plated compounds. The reaction was initiated upon addition of ATP at Km (3.0 μM). The reaction was incubated at room temperature for 40 min and stopped upon the addition of SA-XL665 and TK-antibody both diluted in EDTA-containing kinase detection buffer (Cisbio). The kinase activity was calculated as stated above and the IC50 values were reported.

Compound	IC50 [1] [nM]	IC50 [2] [nM]
COc1cc2nccc(Oc3ccc(NC(=O)c4cnc(C)c(C5=CCOCC5)c4O)cc3F)c2nc1OC [Compound 1-3, 5-(3,6-Dihydro-2H-pyran-4-yl)-N-[4-[(6,7-dimethoxy-1,5-naphthyridin-4-yl)oxy]-3-fluorophenyl]-4-hydroxy-6-methylpyridine-3-carboxamide]	≤ 100	≤ 100
COc1ccc2nccc(Oc3ccc(NC(=O)c4cnc(C)c(C5=CCCCC5)c4O)cc3F)c2n1 [Compound 1-6, 5-(Cyclohexen-1-yl)-N-[3-fluoro-4-[(6-methoxy-1,5-naphthyridin-4-yl)oxy]phenyl]-4-hydroxy-6-methylpyridine-3-carboxamide]	≤ 100	≤ 100
COc1ccc2nccc(Oc3ccc(NC(=O)c4cnc(C)c(C5=CCCC5)c4O)cc3F)c2n1 [Compound 1-7, 5-(Cyclopenten-1-yl)-N-[3-fluoro-4-[(6-methoxy-1,5-naphthyridin-4-yl)oxy]phenyl]-4-hydroxy-6-methylpyridine-3-carboxamide]	≤ 100	≤ 100
COc1cc2nccc(Oc3ccc(NC(=O)c4cn(C)c(C)c(C5CCCC5)c4=O)cc3F)c2nc1OC [Compound 2, 5-Cyclopentyl-N-[4-[(6,7-dimethoxy-1,5-naphthyridin-4-yl)oxy]-3-fluorophenyl]-1,6-dimethyl-4-oxopyridine-3-carboxamide]	≤ 100	≤ 100
COc1cc2nccc(Oc3ccc(NC(=O)c4c(C)nc(C)c(C5=CCCCC5)c4O)cc3F)c2nc1OC [Compound 2-3, 5-(Cyclohexen-1-yl)-N-[4-[(6,7-dimethoxy-1,5-naphthyridin-4-yl)oxy]-3-fluorophenyl]-4-hydroxy-2,6-dimethylpyridine-3-carboxamide]	≤ 100	≤ 100
COc1cnc2c(Oc3ccc(NC(=O)c4cnc(C)c(C5=CCOCC5)c4O)cc3)ccnc2c1 [Compound 7, 5-(3,6-Dihydro-2H-pyran-4-yl)-4-hydroxy-N-[4-[(7-methoxy-1,5-naphthyridin-4-yl)oxy]phenyl]-6-methylpyridine-3-carboxamide]	≤ 100	≤ 100
COc1cc2nccc(Oc3ccc(NC(=O)c4c(C)nc(C)c(C(C)C)c4O)cc3)c2nc1OC [Compound 9, N-[4-[(6,7-Dimethoxy-1,5-naphthyridin-4-yl)oxy]phenyl]-4-hydroxy-2,6-dimethyl-5-propan-2-ylpyridine-3-carboxamide]	≤ 100	≤ 100

Continued, values first:

IC50 [1] [nM]	IC50 [2] [nM]	Compound
≤ 100	≤ 100	COc1cc2nccc(Oc3ccc(NC(=O)c4cn(C)c(C)c(C5=CCCC5)c4=O)cc3F)c2nc1OC [Compound 1, 5-(Cyclopenten-1-yl)-N-[4-[(6,7-dimethoxy-1,5-naphthyridin-4-yl)oxy]-3-fluorophenyl]-1,6-dimethyl-4-oxopyridine-3-carboxamide]
≤ 100	≤ 100	COc1cc2nccc(Oc3ccc(NC(=O)c4c(C)nc(C)c(C5=CCCC5)c4O)cc3F)c2nc1OC [Compound 1-2, 5-(Cyclopenten-1-yl)-N-[4-[(6,7-dimethoxy-1,5-naphthyridin-4-yl)oxy]-3-fluorophenyl]-4-hydroxy-2,6-dimethylpyridine-3-carboxamide hydrochloride]
≤ 100	≤ 100	COc1cnc2c(Oc3ccc(NC(=O)c4cnc(C)c(C5=CCOCC5)c4O)cc3F)ccnc2c1 [Compound 1-4, 5-(3,6-Dihydro-2H-pyran-4-yl)-N-[3-fluoro-4-[(7-methoxy-1,5-naphthyridin-4-yl)oxy]phenyl]-4-hydroxy-6-methylpyridine-3-carboxamide]
≤ 100	> 300	COc1ccc2nccc(Oc3ccc(NC(=O)c4cnc(C)c(C5=CCOCC5)c4O)cc3F)c2n1 [Compound 1-5, 5-(3,6-Dihydro-2H-pyran-4-yl)-N-[3-fluoro-4-[(6-methoxy-1,5-naphthyridin-4-yl)oxy]phenyl]-4-hydroxy-6-methylpyridine-3-carboxamide]
≤ 100	≤ 100	COc1cnc2c(Oc3ccc(NC(=O)c4cnc(C)c(C5=CCCC5)c4O)cc3F)ccnc2c1 [Compound 1-9, 5-(Cyclopenten-1-yl)-N-[3-fluoro-4-[(7-methoxy-1,5-naphthyridin-4-yl)oxy]phenyl]-4-hydroxy-6-methylpyridine-3-carboxamide]
≤ 100	≤ 100	C=C(C)c1c(C)nc(C)c(C(=O)Nc2cc(F)c(Oc3ccnc4cc(OC)c(OC)nc34)cc2F)c1O [Compound 6, N-[4-[(6,7-Dimethoxy-1,5-naphthyridin-4-yl)oxy]-2,5-difluorophenyl]-4-hydroxy-2,6-dimethyl-5-prop-1-en-2-ylpyridine-3-carboxamide]
≤ 100	≤ 100	COc1cc2nccc(Oc3ccc(NC(=O)c4cn(CCF)c(C)c(C5=CCCCC5)c4=O)cc3F)c2nc1OC [Compound 8, 5-(Cyclohexen-1-yl)-N-[4-[(6,7-dimethoxy-1,5-naphthyridin-4-yl)oxy]-3-fluorophenyl]-1-(2-fluoroethyl)-6-methyl-4-oxopyridine-3-carboxamide]
≤ 100	≤ 100	COc1cc2nccc(Oc3cc(F)c(NC(=O)c4c(C)nc(C)c(C(C)C)c4O)cc3F)c2nc1OC [Compound 10, N-[4-[(6,7-Dimethoxy-1,5-naphthyridin-4-yl)oxy]-2,5-difluorophenyl]-4-hydroxy-2,6-dimethyl-5-propan-2-ylpyridine-3-carboxamide]

Reference: US20240158393A1, “PYRIDONE COMPOUNDS AND METHODS OF USE” (Exelixis, Inc., priority 2021, published 2024)
